Reference: patent publication US5972950A, “1,2-diarylmethylene derivatives, their methods of preparation and their uses in therapeutics” (Laboratories UPSA, priority 1996, dated 1999)

Legend:
[1] = test system: pain response in kaolin arthritis; assay: arthritis with kaolin (analgesic activity) in rats; format: in vivo; settings: rat, oral, pain response 5 hours 30 minutes after administration, n=10
Method: The analgesic activity is evaluated in rats by the test of arthritis with kaolin. Thirty minutes after intra-articular administration of an aqueous 10% suspension of kaolin, the product is administered orally at a rate of 1 ml/100 g (n=10 animals per dose).

[2] = test system: carrageenan-induced paw oedema; assay: oedema with carrageenan (anti-inflammatory activity) in rats; format: in vivo; settings: rat, oral, oedema volume 3 hours after carrageenan, n=6
Method: Anti-Inflammatory Activity
The anti-inflammatory activity is evaluated in rats by the test of oedema with carrageenan. The product is administered orally at a rate of 2.5 ml/100 g (n=6 animals per dose) 2 hours 30 minutes after a water overload taken orally (2.5 ml/ 100 g). One hour after administration of the product, the oedema is induced by plantar subcutaneous injection of aqueous 2% carrageenan solution.

[3] = test system: COX-2; assay: inhibition of COX-2 enzymatic activity (PGE2 by EIA); format: biochemical; settings: purified enzyme from ewe placenta, mean ± standard deviation, 4 determinations
Method: (§1) Inhibition Of The COX-1 and COX-2 Enzymatic Activities The molecule studied is preincubated for 10 minutes at 25° C. with 2 U of COX-1 (purified enzyme from ram seminal vesicles) or 1 U of COX-2 (purified enzyme from ewe placenta). Arachidonic acid (6 μM for COX-1, 4, μM for COX-2) is added to the reaction medium and incubation is carried out for 5 minutes at 25° C. When incubation has ended, the enzymatic reaction is stopped by the addition of 1 N HCl and the PGE2 produced is determined by EIA. The results are expressed as the percentage inhibition of the COX-1 and COX-2 enzymatic activities and correspond to mean (±) standard deviations from the average of 4 determinations.

[4] = test system: COX-1; assay: inhibition of COX-1 enzymatic activity (PGE2 by EIA); format: biochemical; settings: purified enzyme from ram seminal vesicles, mean ± standard deviation, 4 determinations
Method: as §1

SMILES: CS(=O)(=O)c1ccc(/C(=C(\CCO)C(=O)[O-])c2ccc(Cl)c(Cl)c2)cc1.[Na+] [Example 27, Sodium (Z)-3-(3,4-dichlorophenyl)-3-(4-methanesulphonylphenyl)-2-(2-hydroxyethyl)prop-2-enoate]
- Analgesic activity % inhibition ([1]; 100 mg/kg): 63.6 ± 13.2%
- Anti-inflammatory activity % inhibition ([2]; 100 mg/kg): 32.4 ± 8.2%

SMILES: CCOC(=O)/C(CCO)=C(/c1ccc(S(C)(=O)=O)cc1)c1cc(Cl)cc(Cl)c1 [Example 14, Ethyl (Z)-3-(3,5-dichlorophenyl)-3-(4-methanesulphonylphenyl)-2-(2-hydroxyethyl)prop-2-enoate]
- % inhibition of COX-2 activity ([3]; 10^-5 M): 80 ± 2%
- % inhibition of COX-2 activity ([3]; 10^-7 M): 16 ± 9%
- Analgesic activity % inhibition ([1]; 30 mg/kg): 45.8 ± 10.9%
- % inhibition of COX-1 activity ([4]; 10^-5 M): 0 ± 0%
- % inhibition of COX-1 activity ([4]; 10^-7 M): 0 ± 0%
- Anti-inflammatory activity % inhibition ([2]; 30 mg/kg): 28.9 ± 4.5%
